According to patent US8389484B2, “Methods for targeting RNA molecules” (priority 1999, dated 2013):
In the oligonucleotide strings, read from the 5' end, every base follows the letter of its sugar. An asterisk marks phosphorothioate; unmarked linkages are phosphodiester. Other units and linkages are bracketed, terminal groups are in braces. A string of capitals states the bases alone. d = 2'-deoxy (DNA)

Legend:
[1] = tested on: U- and C-alleles of the 544-mer fragment of the RPA70-1674U/C mRNA; experiment: E. coli RNase H digestion assay, oligo-directed cleavage in a purified system; type: biochemical, human; details: for reduction in the cleavage of both alleles as compared to parent oligo 3: 544-mer U- and C-alleles, E. coli RNase H; for enhancement in allele discrimination versus parent oligo 3: hairpin oligos, under the experimental conditions; for cleavage efficiency, matched allele versus mismatched allele: 544-mer RPA70 mRNA fragments, oligos target the SNP at position 1674
From the text: FIG. 3. E. coli RNase H digestion of both alleles of the 544-mer fragment of the RPA70-1674U/C mRNA. a, Nucleotide sequence of the PS-oligos used in the assay. Oligos 1 and 2 (SEQ ID NOs:6 and 7, respectively) target the polymorphic site; the bases opposing the polymorphism in the mRNA are shown in boldface. Oligos 3 and 6 (SEQ ID NOs:8 and 11, respectively) target the site of different allelic structures around nucleotide 1656. The terminal residues of oligos 1, 2, 3, and 6 (SEQ ID NOs:6, 7, 8, and 11, respectively) are labeled according to the positions of the complementary nucleotides in RPA70 mRNA. Oligos 4 and 5 (SEQ ID NOs:9 and 10, respectively) share the same target hybridization sequence as 3 (SEQ ID NO:8), but with additional nucleotides (shown underlined) added to facilitate folding into hairpin structures for intended enhancement in allele discrimination. b, E. coli RNase H digestion patterns of the 5′-^32P-labeled U- and C-alleles hybridized to the oligos in a. Cleavage sites were confirmed by running on the same gel RNase T1 digestion ladders for the two alleles (not shown): they are centered at position 1674 for oligos 1 and 2 (SEQ ID NOs:6 and 7), 1650 for oligos 3-5 (SEQ ID NOs:8-10), and 1654 for oligo 6 (SEQ ID NO:11). c, Comparison of percent cleavages of the U- and C-alleles calculated from b. Oligo-dependent-cleavage bands were integrated as a percentage of total RNA in each lane with the overlapping background-cleavage bands subtracted. Variations in sample loading to each lane were internally corrected by measuring percent cleavage instead of absolute band intensity.
E. coli RNase H Digestion Assay. Phosphorothioate oligodeoxyribonucleotides (PS-oligos) were employed in our studies because of their enhanced stability against nucleases (20). PS-oligos were chemically synthesized and desalted on C-18 cartridges by Synthetic Genetics. One, pmol of 5′-^32P-labeled mRNA was renatured in 12 μL RNase H buffer (20 mM Tris.HCl, pH 7.5, 10 mM KCl, 5 mM MgCl2, 0.1 mM dithiothreitol (DTT), 5% glycerol, and 10 μg phenol-extracted glycogen) by heating for 1 min at 85° C., then cooling for 5 min at room temperature followed by 10 min at 37° C. E. coli RNase H (0.6 units, Pharmacia) was then added to the renatured mRNA and incubated for 5 min at 37° C. PS-oligos (5 pmol in RNase H buffer) were subsequently added, and the reaction mixture (15 μL total) incubated for 20 min at 37° C. The digestion products were fractionated on a 4% denaturing polyacrylamide gel, and the cleavage patterns visualized by autoradiography. RNA levels were quantified using a phosphoimager (Fujifilm Model FLA-2000).
Allele-specific Cleavage of RPA70 mRNA in a Purified System. We first used an in vitro assay with E. coli RNase H and the in vitro transcribed 544-mer RPA70 mRNA fragments to examine the efficiency and allele specificity of structure-based targeting as compared to directly targeting the 1674U/C polymorphism. […] SNP-targeting oligos 1 and 2 were previously optimized for allele discrimination in a cell transfection assay (J. P. Basilion, unpublished results). Each of the SNP-targeting oligos is perfectly matched only with one of the two alleles; it is singly mismatched with the other allele. Single base mismatches formed between the SNP-targeting oligos and their respective non-targeting alleles contribute to the allele discrimination observed previously. Structure-targeting oligos 3 and 6 match perfectly with both alleles, and were designed to hybridize maximally with the single-stranded 1656 region of the U-allele, while avoiding the 1664 region which is slightly accessible in both alleles (FIG. 1b). Four and six additional nucleotides were added to the 5′-end of oligo 3 to produce oligos 4 and 5, respectively, to facilitate folding into hairpin structures for enhanced allele discrimination (27).

[2] = tested on: 1674U-allele of endogenous RPA70 mRNA; experiment: Oligonucleotide-directed cleavage of endogenous RPA70 mRNA in HeLa cell extracts (Northern blot); type: biochemical, human; details: for cleavage of matched allele versus singly mismatched allele: HeLa (1674U) versus Calu-1 (1674C) extracts
Experimental: (§1) FIG. 4. Northern blot analysis of oligonucleotide-directed cleavage of endogenous RPA70 mRNA in human cell extracts. The extracts were prepared from HeLa and Calu-1 cells that express only the 1674U- or the 1674 C-allele of the RPA70 mRNA, respectively. In addition to PS-oligos 1, 2, 3, and 6 as described in FIG. 3, oligo 7 (5′ […] 3′; SEQ ID NO:1) was used in the assay as a non-allele-specific control oligo that targets nucleotides 2230-2249 of the 3′-UTR of RPA70 mRNA. a, Targeting the 1674U/C polymorphic site by oligos 1 and 2. b, Targeting the site of different allelic structures around nucleotide 1656 by oligos 3 and 6. Reactions were done in duplicates. The averaged data points of the duplicates are plotted with standard deviations as error bars, and are shown below the corresponding Northern blots. Intact RPA70 mRNA levels were normalized to GAPDH levels and expressed as a percentage of no-oligo control for each experiment.
Oligonucleotide-directed Cleavage of Endogenous RPA70 mRNA in Human Cell Extracts. Human tumor cell lines HeLa and Calu-1 (American Type Culture collection) were genotyped for SNPs in RPA70 cDNA by RFLP analysis and by sequencing. […] HeLa cells were cultured in monolayers in minimum essential medium (Gibco BRL), and Calu-1 cells were cultured in monolayers in McCoy's 5A medium (Sigma). Both media were supplemented with 10% heat inactivated fetal bovine serum (JRH Biosciences), 100 units/mL penicillin-100 μg/mL streptomycin (Gibco BRL), and 2 mM L-glutamine (Gibco BRL). Both cell lines were grown under 5% CO2/95% air in a humidified incubator at 37° C. For preparation of cell extracts, the cells were grown to 80-90% confluence, typsinized, and washed twice with the complete medium as specified above and twice with phosphate buffered saline (Gibco BRL). Approximately 5×10^7 Cells were lysed in a 15 mL tissue grinder with a Teflon pestle (Wheaton) in the presence of 1.5 mL lysis buffer (20 mM Tris.HCl, pH 7.5, 420 mM NaCl, 2 mM MgCl2, 0.2 mM EDTA, 1 mM DTT, 0.5 mM phenylmethyl sulfonylfluoride (PMSF), and 25% glycerol). The sodium salt concentration was chosen to facilitate the disruption of the nuclear membrane to release RNase H from nuclei (21). Up to 200 strokes were needed to completely lyse the cells, as checked using a hemacytometer. The cell lysate was centrifuged at 14,000, rpm for 10 min at 4° C., and cell extracts were obtained by transferring supernatant to clean microcentrifuge tubes and freezing immediately at −80° C. Total protein concentration of cell extracts was determined using the Bradford assay (Bio-Rad). For oligodeoxynucleotide-directed cleavage of endogenous mRNA reactions, cell extracts were diluted to a total protein concentration of 3 mg/mL with the lysis buffer. After the addition of a 10× PS-oligo solution to the diluted cell extracts, the reaction mixture was incubated for 40 min at 37° C. The level of intact RPA70 mRNA was determined by total RNA isolation and Northern blot hybridization using procedures described previously (22, 23), and followed by phosphoimager analysis. Northern probes specific for RPA70 mRNA were synthesized by random primed [α-^32P]dCTP-labeling of a cDNA probe corresponding to nucleotides 1519-2080 of human RPA70 mRNA. To account for variability in the amount of total RNA loaded into individual gel wells for Northern analysis, the level of glyceraldehyde 3-phosphate dehydrogenase (GAPDH) mRNA was also measured by first stripping the RPA70 mRNA probe, and then reprobing the same Northern blot with a random primed [α-^32P]dCTP-labeled cDNA probe corresponding to a 600 nucleotide sequence of human GAPDH (Stratagene).
Allele-specific Cleavage of Endogenous RPA70 mRNA in Human Cell Extracts. We next performed oligo-directed cleavage of the full-length, endogenous RPA70 mRNA in whole cell extracts prepared from two genotyped human cell lines, HeLa (1674U) and Calu-1 (1674C). […]

[3] = tested on: 1674U- and 1674C-alleles of RPA70 mRNA; experiment: Cell transfection assay (J. P. Basilion, unpublished results); type: cell-based, human; details: previously shown
[4] = tested on: 1674C-allele of endogenous RPA70 mRNA; experiment: Oligonucleotide-directed cleavage of endogenous RPA70 mRNA in Calu-1 cell extracts (Northern blot); type: biochemical, human; details: 300 nM oligo, Calu-1 (1674C) extracts
Experimental: as §1
Oligonucleotide-directed Cleavage of Endogenous RPA70 mRNA in Human Cell Extracts. […] Total protein concentration of cell extracts was determined using the Bradford assay (Bio-Rad). […] The level of intact RPA70 mRNA was determined by total RNA isolation and Northern blot hybridization using procedures described previously (22, 23), and followed by phosphoimager analysis. […]

Oligo 4: PS-oligo (SEQ ID NO:9), oligo 3 with four additional 5′-end nucleotides to facilitate folding into a hairpin structure (GAATCAAGTCACCCACTGATTCTC; all phosphorothioate, sugars by position and methylation of C not given here)
reduction in the cleavage of both alleles as compared to parent oligo 3 [1]: 23%
enhancement in allele discrimination versus parent oligo 3 [1]: no enhancement in allele discrimination

Oligo 5: PS-oligo (SEQ ID NO:10), oligo 3 with six additional 5′-end nucleotides to facilitate folding into a hairpin structure (GAGAATCAAGTCACCCACTGATTCTC; all phosphorothioate, sugars by position and methylation of C not given here)
reduction in the cleavage of both alleles as compared to parent oligo 3 [1]: 36%
enhancement in allele discrimination versus parent oligo 3 [1]: no enhancement in allele discrimination

Oligo 6: Phosphorothioate oligodeoxyribonucleotide 15-mer (SEQ ID NO:11) targeting the site of different allelic structures around nucleotide 1656 of RPA70 mRNA (dC*dA*dA*dG*dT*dC*dA*dC*dC*dC*dA*dC*dT*dG*dA)
allele discrimination compared with the other oligos ([2]; HeLa versus Calu-1 extracts, all three oligo concentrations (100, 300, 600 nM)): better allele discrimination than the SNP-targeting oligos 1 and 2

5′ TGGTCTGCAGTTAGGGTCAG 3′ (phosphorothioate backbone, further chemistry not given here) [Oligo 7]
response of the two cell types to the control oligo ([2]; HeLa versus Calu-1 extracts, 100 to 600 nM): responded similarly
targeting efficiency on the 1674U- and 1674C-alleles [3]: equally high efficiency

Oligo 2: Phosphorothioate oligodeoxyribonucleotide 18-mer (SEQ ID NO:7) targeting the RPA70 1674U/C polymorphic site, C-allele specific (dG*dC*dT*dT*dC*dA*dG*dC*dG*dG*dA*dC*dT*dC*dC*dT*dG*dG)
extent of cleavage of the matched allele (C-allele) [4]: the majority of the matched allele remained uncleaved
cleavage of matched allele versus singly mismatched allele ([2]; 300 nM oligo): equally or slightly more cleaved than the singly mismatched allele
cleavage efficiency, matched allele versus mismatched allele [1]: greater for their respective matched alleles than for the mismatched alleles

Oligo 1: Phosphorothioate oligodeoxyribonucleotide 20-mer (SEQ ID NO:6) targeting the RPA70 1674U/C polymorphic site, U-allele specific (dT*dA*dG*dC*dT*dT*dC*dA*dG*dC*dA*dG*dA*dC*dT*dC*dC*dT*dG*dG)
extent of cleavage of the matched allele (U-allele) ([2]; 300 nM oligo, HeLa (1674U) extracts): the majority of the matched allele remained uncleaved
cleavage of matched allele versus singly mismatched allele ([2]; 300 nM oligo): equally or slightly more cleaved than the singly mismatched allele
cleavage efficiency, matched allele versus mismatched allele [1]: greater for their respective matched alleles than for the mismatched alleles

Oligo 3: Phosphorothioate oligodeoxyribonucleotide 20-mer (SEQ ID NO:8) targeting the site of different allelic structures around nucleotide 1656 of RPA70 mRNA (dC*dA*dA*dG*dT*dC*dA*dC*dC*dC*dA*dC*dT*dG*dA*dT*dT*dC*dT*dC)
non-target C-allele intact ([4]; intact mRNA normalized to GAPDH, % of no-oligo control): more than 90%
U-allele remaining uncleaved ([2]; 300 nM oligo, HeLa (1674U) extracts, intact mRNA normalized to GAPDH, % of no-oligo control): 15%
allele discrimination relative to that obtained by directly targeting the polymorphism with 20-mer 1 ([2]; HeLa versus Calu-1 extracts, percentage of intact mRNA evaluated, 100, 300 and 600 nM): two- to sixfold
